Laboratory results: the NIST ThermoML archive (doi:10.1021/je300775u)

Test: xn = mol fraction of the nth substance listed
Conditions: 101 kPa, Liquid; for speed of sound: Pulse-echo method; for mass density: Vibrating tube method

ClC(Cl)(Cl)Br [bromotrichloromethane] + BrCBr
Conditions | mass density, 293.15 K [kg/m3] | mass density, 298.15 K [kg/m3] | mass density, 303.15 K [kg/m3] | mass density, 308.15 K [kg/m3] | mass density, 313.15 K [kg/m3] | speed of sound, 293.15 K [m/s] | speed of sound, 298.15 K [m/s] | speed of sound, 303.15 K [m/s] | speed of sound, 308.15 K [m/s] | speed of sound, 313.15 K [m/s]
x1 = 0.0506 | 2455.57 | 2442.67 | 2429.69 | 2416.74 | 2403.73 | 957 | 944.4 | 931.7 | 919.1 | 906.4
x1 = 0.0993 | 2424.17 | 2411.4 | 2398.59 | 2385.75 | 2372.87 | 953 | 940.3 | 927.6 | 914.8 | 902.2
x1 = 0.1491 | 2392.98 | 2380.34 | 2367.61 | 2354.94 | 2342.21 | 948.9 | 936.2 | 923.4 | 910.7 | 898.1
x1 = 0.1991 | 2363.17 | 2350.66 | 2338.13 | 2325.48 | 2312.93 | 945.3 | 932.6 | 919.8 | 907.1 | 894.4
x1 = 0.2473 | 2335.59 | 2323.21 | 2310.8 | 2298.33 | 2285.84 | 942.1 | 929.3 | 916.5 | 903.7 | 891
x1 = 0.2986 | 2307.34 | 2295.08 | 2282.77 | 2270.45 | 2258.08 | 939.1 | 926.2 | 913.2 | 900.4 | 887.7
x1 = 0.3465 | 2281.89 | 2269.75 | 2257.58 | 2245.37 | 2233.11 | 936.3 | 923.3 | 910.5 | 897.6 | 884.8
x1 = 0.3979 | 2255.64 | 2243.64 | 2231.57 | 2219.48 | 2207.34 | 933.6 | 920.7 | 907.7 | 894.8 | 882
x1 = 0.4468 | 2231.41 | 2219.49 | 2207.52 | 2195.5 | 2183.5 | 931.3 | 918.3 | 905.3 | 892.4 | 879.5
x1 = 0.4967 | 2207.74 | 2195.91 | 2184.02 | 2172.16 | 2160.25 | 929.1 | 916.1 | 903.1 | 890.1 | 877.1
x1 = 0.5462 | 2185.38 | 2173.66 | 2161.9 | 2150.12 | 2138.31 | 927.2 | 914.1 | 901.1 | 888 | 875.1
x1 = 0.5975 | 2162.89 | 2151.29 | 2139.5 | 2128 | 2116.3 | 925.3 | 912.2 | 899.1 | 886.1 | 873.1
x1 = 0.6479 | 2141.49 | 2130.01 | 2118.46 | 2106.9 | 2095.25 | 923.7 | 910.6 | 897.4 | 884.4 | 871.4
x1 = 0.6947 | 2122.35 | 2110.96 | 2099.49 | 2087.96 | 2076.47 | 922.4 | 909.2 | 896 | 882.8 | 869.9
x1 = 0.7469 | 2101.9 | 2090.59 | 2079.21 | 2067.83 | 2056.41 | 921 | 907.7 | 894.5 | 881.4 | 868.4
x1 = 0.7959 | 2083.33 | 2072.08 | 2060.79 | 2049.47 | 2038.17 | 919.9 | 906.6 | 893.4 | 880.2 | 867.1
x1 = 0.8494 | 2063.55 | 2052.39 | 2041.21 | 2030.02 | 2018.79 | 918.8 | 905.5 | 892.2 | 879 | 865.9
x1 = 0.898 | 2046.2 | 2035.13 | 2024.04 | 2012.93 | 2001.78 | 918 | 904.6 | 891.3 | 878.1 | 865
x1 = 0.9469 | 2029.71 | 2018.65 | 2007.69 | 1996.65 | 1985.57 | 917.4 | 904 | 890.6 | 877.3 | 864.1
x1 = 1 | 2013.06 | 2002.14 | 1991.2 | 1980.24 | 1969.25 | 917.1 | 903.6 | 890.2 | 876.8 | 863.6
